From patent US4952580A, “Pesticidal polyhaloalkene derivatives” (priority 1988, dated 1990) come the findings set out here.

Each structure is given as a SMILES string. Like-named read-outs stand apart in the source and are kept apart here.

Experiment [1] concerns root-knot nematode (Meloidogyne incognita). In words: Initial Root-Knot Nematicidal Activity. The format is in vivo. Particulars: 336 h, read-out: Percent Control; for pest or weed control at 0.313 ppm: Table 2, Application Rate 0.313 ppm; for pest or weed control at 5 ppm: Table 2, Application Rate 5.0 ppm; for pest or weed control at 10 ppm: Table 2, Application Rate 10.0 ppm. The method, boiled down:
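Compound incorporated into Meloidogyne incognita-infested soil at 10 ppm to 0.078 ppm, then planted with tomato or cucumber seedlings. Root galling scored two weeks after planting as a knot index and converted to percent control, given as averages.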

Experiment [2] relates to root-knot nematode. In words: Residual Root-Knot Nematicidal Activity. In kind it is in vivo, Meloidogyne incognita. Particulars: read-out: Percent Control. The gist of the method:
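Soil received 5% dust formulation at 5 and 10 ppm test compound and was held in a greenhouse, then infested with root-knot nematode eggs and larvae at 1, 2 and 4 weeks post-treatment. Cucumber or tomato seedlings were planted and scored about two weeks after infestation for Knot Index and Percent Control.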

Experiment [3] relates to stunt nematode. In words: Stunt Nematode Test. In kind it is in vivo. Particulars: 672 h, read-out: Percent Control; for pest or weed control at 5 ppm: rate 5 ppm.
In experiment [4] the test system is lesion nematode. In words: Lesion Nematode Test. Particulars: read-out: Percent Control. The format is in vivo. The gist of the method:
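Run as the stunt nematode test but on pea seedlings; compounds applied as dust formulations (initial and residual activity) or acetone/water formulations (systemic activity), with untreated samples as reference. Percent control derived by formula.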

In experiment [5] the test system is cyst nematode. The experiment in a line: Cyst Nematode Test. In kind it is in vivo. As to conditions: read-out: Percent Control. The method, then: Compounds of this invention were tested as follows for nematicidal and anthelmintic activity as dust formulations (initial and residual activity) and as acetone/water formulations (systemic activity). The formulations are described above.
The procedures was substantially the same as described in the stunt nematode test except soybean seedlings were used. "Percent Control" (Table 6 appended) is as defined in the stunt nematode test results.

Experiment [6] relates to root-knot nematode. In words: Soil Mobility against root-knot nematode. In kind it is in vivo, Meloidogyne incognita. Particulars: 336 h; for pest or weed control at 0.313 ppm: Table 7, 0.313 ppm; for pest or weed control at 0.625 ppm: Table 7, 0.625 ppm; for pest or weed control at 1.25 ppm: Table 7, 1.25 ppm; for pest or weed control at 2.5 ppm: Table 7, 2.5 ppm; for pest or weed control at 10 ppm: Table 7, 10 ppm. The gist of the method: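 Soil mobility of the nematicidal test material was evaluated by placing treated, nematode-infested soil in 8 cm plastic pots stacked above two or more pots of untreated infested soil, each containing a 10 cm^3 sand layer and filter paper discs. Fifteen cm of water was dripped through, pots drained 16-18 hours, then were planted with cucumber or tomato seedlings and scored for Percent Control.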

Experiment [7] has as its system Caenorhabditis elegans. The experiment in a line: C. Elegans Nematode Screening Test and Evaluation (in-vitro). Particulars: Caenorhabditis elegans. The gist of the method: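 Worms (10-15 per well) in buffer with E. coli food, ampicillin and mycostatin; compound added in DMSO, 2-3 replicates per rate. Incubated 5-6 days at 20° C. Population development scored against untreated wells, noting effects such as reduced egg hatch or molting disruption.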

The mark [8] stands for this setting: Table 2, Application Rate 0.625 ppm.
The mark [9] stands for this setting: Table 2, Application Rate 1.25 ppm.
[10] abbreviates: Table 2, Application Rate 2.5 ppm.
Setting [11] is: 168 h, Table 3, 5 ppm, inoculation 1 week after treatment.
Setting [12] is: 168 h, Table 3, inoculation 1 week after treatment.
Where [13] appears, read: 336 h, Table 3, 5 ppm, inoculation 2 weeks after treatment.
Setting [14] is: 672 h, Table 3, 5 ppm, inoculation 4 weeks after treatment.
[15] abbreviates: Bottom container, read-out: Percent Control.
[16] abbreviates: Middle container, read-out: Percent Control.
Setting [17] is: Top container, read-out: Percent Control.
Where [18] appears, read: Table 7, 30 ppm, Bottom container, read-out: Percent Control.
[19] abbreviates: Table 7, 30 ppm, Top container, read-out: Percent Control.
Where [20] appears, read: read-out: Percent Control, Table 7, 30 ppm, Middle container.
Setting [21] is: Table 9 screen, 5 ppm, read-out: Percent Mortality.

`FC(F)=C(F)CCSC1=NCCS1` [Compound 1, 2-(3,4,4-trifluoro-3-butenylthio)-4,5-dihydrothiazole]: the pest or weed control at 0.078 ppm in experiment [1] (Table 2, Application Rate 0.078 ppm) was found to be 56%. Also, the pest or weed control at 0.313 ppm in experiment [1] was determined as 99%; in experiment [6] (setting [15]), 25%; in experiment [6] (setting [16]), 75%; in experiment [6] (setting [17]), 77%. Moreover, the pest or weed control at 0.625 ppm came out at 100% in experiment [1] (setting [8]), 77% in experiment [6] (setting [15]), 98% in experiment [6] (setting [16]) and 97% in experiment [6] (setting [17]). The pest or weed control at 1.25 ppm is 99% in experiment [1] (setting [9]), 96% in experiment [6] (setting [15]), 99% in experiment [6] (setting [16]) and 100% in experiment [6] (setting [17]). Besides, the pest or weed control at 2.5 ppm in experiment [1] (setting [10]) is 99%; in experiment [4] (Table 5, rate 2.5 ppm) it was 0%; in experiment [6] (setting [15]), 100%; in experiment [6] (setting [16]), 100%; in experiment [6] (setting [17]), 100%. Besides, the pest or weed control at 5 ppm in experiment [1] stood at 99%; in experiment [2] (setting [11]), 99%; in experiment [2] (setting [13]), 63%; in experiment [2] (setting [14]), 25%; in experiment [3] (Table 4), 30%; in experiment [5] (Table 6, rate 5 ppm), 94%. Moreover, the pest or weed control at 5 ppm is 79% in experiment [5] (Table 6, rate 5 ppm, whole cysts rather than homogenized cysts); 99% in experiment [6] (Table 7, 5 ppm, Bottom container, read-out: Percent Control); 98% in experiment [6] (Table 7, 5 ppm, Middle container, read-out: Percent Control); 100% in experiment [6] (Table 7, 5 ppm, Top container, read-out: Percent Control). For the same molecule, the pest or weed control at 10 ppm in experiment [1] turned out to be 100%; in experiment [2] (setting [12]), 98%; in experiment [3] (Table 4, rate 10 ppm), 61%; in experiment [6] (container 1 (Top), read-out: Percent Control), 100%; in experiment [6] (container 2, read-out: Percent Control), 100%; in experiment [6] (container 3, read-out: Percent Control) it was 100%. Further, the pest or weed control at 10 ppm turned out to be 99% in experiment [6] (container 4, read-out: Percent Control); 97% in experiment [6] (container 5, read-out: Percent Control); 42% in experiment [6] (container 6 (Bottom), read-out: Percent Control). In addition, in experiment [1], the pest or weed control at 0.156 ppm is 95%. In addition, the pest or weed control at 30 ppm was determined as 85% in experiment [6] (setting [18]), 97% in experiment [6] (setting [19]) and 95% in experiment [6] (setting [20]).

On to `FCCSc1nnc(SCCC(F)=C(F)F)s1` [Compound 27, 2-(2-fluoroethylthio)-5-(3,4,4-trifluoro-3-butenylthio)-1,3,4-thiadiazole], for which, in experiment [1], the pest or weed control at 0.312 ppm was 31%. For the same molecule, the pest or weed control at 0.625 ppm in experiment [1] is 79%. Further, the pest or weed control at 1.25 ppm in experiment [1] amounted to 99%. Besides, the pest or weed control at 2.5 ppm was 100% in experiment [1] and 63% in experiment [4]. Moreover, the pest or weed control at 5 ppm in experiment [2] (168 h) was determined as 99%; in experiment [2] (336 h), 97%; in experiment [2] (672 h), 99%; in experiment [3] (Table 4a), 62%; in experiment [5], 57%; in experiment [6] (read-out: Percent Control, Table 7a, 5% dust, 5 ppm, BOTTOM container) it was 100%. The pest or weed control at 5 ppm in experiment [6] (read-out: Percent Control, Table 7a, 5% dust, 5 ppm, MIDDLE container) was 100%; in experiment [6] (read-out: Percent Control, Table 7a, 5% dust, 5 ppm, TOP container) it was 99%. For the same molecule, the mortality at 5 ppm in experiment [7] (setting [21]) turned out to be 0%. Besides, the inhibition at 5 ppm in experiment [7] (read-out: Percent Inhibition of Reproduction) was 38%.

Turning to `FC(F)=C(F)CCSc1nsc(SCCC(F)=C(F)F)n1` [Compound 25, 3,5-di(3,4,4-trifluoro-3-butenylthio)-1,2,4-thiadiazole], the pest or weed control at 0.312 ppm in experiment [1] (Table 2, Application Rate 0.312 ppm) was determined as 78%. For the same molecule, the pest or weed control at 0.625 ppm in experiment [1] (setting [8]) turned out to be 97%. Besides, the pest or weed control at 1.25 ppm in experiment [1] (setting [9]) came to 97%. Also, the pest or weed control at 2.5 ppm turned out to be 99% in experiment [1] (setting [10]) and 77% in experiment [4] (Table 5, rate 2.5 ppm). Besides, the pest or weed control at 5 ppm in experiment [2] (168 h, Table 3a, 5% dust, 5 ppm, inoculation 1 week post-treatment) is 100%; in experiment [2] (336 h, Table 3a, 5% dust, 5 ppm, inoculation 2 weeks post-treatment), 97%; in experiment [2] (672 h, Table 3a, 5% dust, 5 ppm, inoculation 4 weeks post-treatment), 98%; in experiment [5] (Table 6, rate 5 ppm), 83%; in experiment [6] (Table 7a, 5% dust, 5 ppm, BOTTOM container, read-out: Percent Control), 8%; in experiment [6] (Table 7a, 5% dust, 5 ppm, MIDDLE container, read-out: Percent Control) it was 69%. The pest or weed control at 5 ppm in experiment [6] (Table 7a, 5% dust, 5 ppm, TOP container, read-out: Percent Control) was 100%. Also, in experiment [7] (Table 9 screen, 5 ppm, read-out: Percent Inhibition of Reproduction), the inhibition at 5 ppm was 100%. The mortality at 5 ppm was 75% in experiment [7] (setting [21]) and 100% in experiment [7] (Table 10 evaluation, 5 ppm, read-out: Percent Mortality). Moreover, the inhibition at 1.25 ppm in experiment [7] (Table 10 evaluation, 1.25 ppm, read-out: Percent Inhibition of Reproduction) turned out to be 17%. For the same molecule, the mortality at 1.25 ppm in experiment [7] (Table 10 evaluation, 1.25 ppm, read-out: Percent Mortality) was 0%. Also, in experiment [7] (Table 10 evaluation, 2.5 ppm, read-out: Percent Inhibition of Reproduction), the inhibition at 2.5 ppm was 58%. Moreover, in experiment [7] (Table 10 evaluation, 2.5 ppm, read-out: Percent Mortality), the mortality at 2.5 ppm worked out at 0%.

With `CSc1nnc(SCCC(F)=C(F)F)s1` [Compound 2, 2-methylthio-5-(3,4,4-trifluoro-3-butenylthio)-1,3,4-thiadiazole], the pest or weed control at 0.313 ppm in experiment [1] turned out to be 38%. Besides, the pest or weed control at 0.625 ppm in experiment [1] (setting [8]) amounted to 84%. Also, the pest or weed control at 1.25 ppm in experiment [1] (setting [9]) is 86%. The pest or weed control at 2.5 ppm in experiment [1] (setting [10]) amounted to 96%; in experiment [1] it was 95%. The pest or weed control at 5 ppm in experiment [1] was found to be 96%; in experiment [2] (setting [11]), 98%; in experiment [2] (setting [13]), 38%; in experiment [2] (setting [14]) it was 42%; in experiment [3] (Table 4), 72%; in experiment [4] (Table 5, rate 5 ppm) it was 0%. Also, the pest or weed control at 5 ppm in experiment [5] (Table 6, rate 5 ppm) was 70%. The pest or weed control at 10 ppm in experiment [1] turned out to be 100%; in experiment [2] (setting [12]), 77%; in experiment [2] (336 h, Table 3, inoculation 2 weeks after treatment), 56%; in experiment [2] (672 h, Table 3, inoculation 4 weeks after treatment), 69%. The figures for the pest or weed control at 30 ppm in experiment [6] (setting [18]), in experiment [6] (setting [19]) and in experiment [6] (setting [20]) were 25%, 42% and 33%, respectively.
